Measurements reported in patent US10800791B2, “Triazole ACC inhibitors and uses thereof” (Gilead Apollo, LLC, priority 2015, dated 2020).
In brackets after ≈: the same amount, converted by molar mass. Like-named read-outs stand apart in the source and are kept apart here.

Experiments:
human (hACC2) = human (hACC2) (Homo sapiens, UniProt O00763); assay: In vitro ACC inhibition assay (ADP-Glo), hACC2; format: biochemical; details: 5 nM ACC2, 20 μM ATP, 20 μM acetyl-CoA
Protocol: The detailed procedure is as follows. […] 10 μL ADP glo reagent was added. […] 20 μL kinase detection reagent was added.

Rhizoctonia solani (Rs) = assay: Growth inhibition assay of fungal pathogens, Rs; format: cell-based; details: 48 h
[1] = read-out: Concentration at 90% Inhibition Rs, Rhizoctonia solani, mycelial plugs, growth inhibition at 48 hours vs 2% DMSO control
[2] = read-out: Concentration at 90% Inhibition Rs, Rhizoctonia solani, mycelial plugs, growth inhibition vs 2% DMSO control at 48 hours
[3] = mycelial plugs, growth inhibition at 48 hours vs 2% DMSO control, read-out: Concentration at 90% Inhibition Rs
[4] = mycelial plugs, growth inhibition vs 2% DMSO control at 48 hours, read-out: Concentration at 90% Inhibition Rs

Chain of human (hACC2) (O00763 whole entry): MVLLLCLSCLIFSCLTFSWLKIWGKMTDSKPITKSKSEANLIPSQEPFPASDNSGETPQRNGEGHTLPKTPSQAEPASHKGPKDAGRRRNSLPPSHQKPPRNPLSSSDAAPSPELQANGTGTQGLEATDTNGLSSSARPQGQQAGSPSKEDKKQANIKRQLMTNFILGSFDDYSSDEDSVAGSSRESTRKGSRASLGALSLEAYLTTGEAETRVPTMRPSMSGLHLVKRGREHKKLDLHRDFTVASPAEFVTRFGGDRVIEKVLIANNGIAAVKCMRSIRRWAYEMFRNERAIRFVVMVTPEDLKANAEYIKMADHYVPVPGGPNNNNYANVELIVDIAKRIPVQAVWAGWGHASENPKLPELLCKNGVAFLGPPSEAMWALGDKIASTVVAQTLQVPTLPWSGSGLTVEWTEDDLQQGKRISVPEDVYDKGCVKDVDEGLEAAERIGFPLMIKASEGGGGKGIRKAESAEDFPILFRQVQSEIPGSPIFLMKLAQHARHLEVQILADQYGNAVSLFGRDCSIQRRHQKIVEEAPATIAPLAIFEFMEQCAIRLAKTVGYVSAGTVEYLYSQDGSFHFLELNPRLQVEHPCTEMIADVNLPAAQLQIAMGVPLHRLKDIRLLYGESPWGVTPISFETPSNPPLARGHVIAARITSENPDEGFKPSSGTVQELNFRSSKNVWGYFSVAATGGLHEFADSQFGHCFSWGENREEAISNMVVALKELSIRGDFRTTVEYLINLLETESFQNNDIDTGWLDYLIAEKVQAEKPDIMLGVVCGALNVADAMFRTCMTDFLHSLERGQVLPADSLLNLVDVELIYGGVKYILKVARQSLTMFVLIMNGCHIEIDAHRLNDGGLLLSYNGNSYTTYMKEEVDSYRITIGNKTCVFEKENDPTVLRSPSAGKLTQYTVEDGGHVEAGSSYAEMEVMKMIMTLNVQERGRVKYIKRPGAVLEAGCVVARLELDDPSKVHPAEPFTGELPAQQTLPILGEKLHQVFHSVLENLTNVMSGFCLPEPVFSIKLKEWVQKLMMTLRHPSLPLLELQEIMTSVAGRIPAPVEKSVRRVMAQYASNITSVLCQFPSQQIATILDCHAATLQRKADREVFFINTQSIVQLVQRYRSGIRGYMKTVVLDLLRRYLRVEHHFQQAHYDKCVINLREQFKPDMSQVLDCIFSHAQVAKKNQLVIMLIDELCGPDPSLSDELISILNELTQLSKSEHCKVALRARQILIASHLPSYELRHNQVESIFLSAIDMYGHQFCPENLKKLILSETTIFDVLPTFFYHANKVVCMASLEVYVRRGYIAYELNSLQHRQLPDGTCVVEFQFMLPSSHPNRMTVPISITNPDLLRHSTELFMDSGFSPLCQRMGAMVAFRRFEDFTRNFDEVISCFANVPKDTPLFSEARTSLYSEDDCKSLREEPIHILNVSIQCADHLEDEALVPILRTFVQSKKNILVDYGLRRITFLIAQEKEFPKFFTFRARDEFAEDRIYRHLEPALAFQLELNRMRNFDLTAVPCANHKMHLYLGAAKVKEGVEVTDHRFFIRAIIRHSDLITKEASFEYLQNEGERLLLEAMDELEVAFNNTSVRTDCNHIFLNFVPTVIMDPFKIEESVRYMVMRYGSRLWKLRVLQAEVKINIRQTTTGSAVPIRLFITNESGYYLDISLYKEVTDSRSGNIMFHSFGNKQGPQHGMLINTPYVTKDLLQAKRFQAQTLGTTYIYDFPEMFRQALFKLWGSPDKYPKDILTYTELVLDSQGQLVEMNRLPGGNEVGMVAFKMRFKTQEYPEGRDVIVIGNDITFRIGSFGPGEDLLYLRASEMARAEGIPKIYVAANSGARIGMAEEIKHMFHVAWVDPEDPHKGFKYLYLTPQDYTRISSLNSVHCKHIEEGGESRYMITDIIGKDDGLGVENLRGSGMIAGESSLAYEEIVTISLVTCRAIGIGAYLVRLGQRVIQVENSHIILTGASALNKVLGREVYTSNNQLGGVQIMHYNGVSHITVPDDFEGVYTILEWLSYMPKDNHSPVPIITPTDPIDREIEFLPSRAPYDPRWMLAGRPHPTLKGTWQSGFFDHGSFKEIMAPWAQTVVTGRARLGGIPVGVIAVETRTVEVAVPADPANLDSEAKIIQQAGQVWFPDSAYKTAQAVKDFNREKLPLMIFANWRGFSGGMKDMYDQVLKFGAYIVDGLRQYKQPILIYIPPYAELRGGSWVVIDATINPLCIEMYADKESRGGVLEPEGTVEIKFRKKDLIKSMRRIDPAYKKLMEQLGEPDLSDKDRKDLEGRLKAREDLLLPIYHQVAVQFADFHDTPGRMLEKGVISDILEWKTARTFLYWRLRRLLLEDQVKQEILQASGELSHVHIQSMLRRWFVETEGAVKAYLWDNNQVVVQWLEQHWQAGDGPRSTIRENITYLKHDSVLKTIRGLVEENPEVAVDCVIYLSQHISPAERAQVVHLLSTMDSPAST

Q: What does the source list for `COc1ccc(F)cc1[C@H](Cn1c(=O)n([C@@H](C)C(=O)NC(C)C)c(=O)c2c(C)c(-n3nccn3)sc21)OCCO` [Compound I-88, (S)-2-(1-((R)-2-(5-fluoro-2-methoxyphenyl)-2-(2-hydroxyethoxy)ethyl)-5-methyl-2,4-dioxo-6-(2H-1,2,3-triazol-2-yl)-1,4-dihydro-thieno[2,3-d]pyrimidin-3(2H)-yl)-N-isopropylpropanamide]?
A: IC50 (human (hACC2); Table 2a): 5 to 10 nM; IC50 (human (hACC2); Table 2b, additional results): 5 to 10 nM; IC90 (Rhizoctonia solani (Rs); [1]): 0.08 µg/mL (≈ 0.139 µM); IC90 (Rhizoctonia solani (Rs); [2]): 0.08 µg/mL (≈ 0.139 µM)

Q: For `COc1ccc(F)cc1[C@H](Cn1c(=O)n([C@H](C)C(=O)NC(C)C)c(=O)c2c(C)c(-n3nccn3)sc21)OCCO` [Compound I-89, (R)-2-(1-((R)-2-(5-fluoro-2-methoxyphenyl)-2-(2-hydroxy-ethoxy)ethyl)-5-methyl-2,4-dioxo-6-(2H-1,2,3-triazol-2-yl)-1,4-dihydrothieno[2,3-d]pyrimidin-3(2H)-yl)-N-isopropylpropanamide], which IC50 (human (hACC2); Table 2a) is on record?
A: 10 to 40 nM

Q: And the IC50 (human (hACC2); Table 2b, additional results)?
A: 5 to 10 nM

Q: What about the IC90 (Rhizoctonia solani (Rs); [1]) of the same molecule?
A: 2 µg/mL (≈ 3.48 µM)

Q: And the IC90 (Rhizoctonia solani (Rs); [2])?
A: 2 µg/mL (≈ 3.48 µM)

Q: How did the IC50 (human (hACC2); Table 2a) turn out when `COc1ccc(F)cc1[C@H](Cn1c(=O)n(C(C)(C)C(=O)NC(C)C)c(=O)c2c(C)c(-n3nccn3)sc21)OCCC(N)=O` [Compound I-90, (R)-2-(1-(2-(3-amino-3-oxopropoxy)-2-(5-fluoro-2-metho-xyphenyl)ethyl)-5-methyl-2,4-dioxo-6-(2H-1,2,3-triazol-2-yl)-1,4-dihydro-thieno[2,3-d]pyrimidin-3(2H)-yl)-N-isopropyl-2-methylpropanamide] was run?
A: 10 to 40 nM

Q: What about the IC50 (human (hACC2); Table 2b, additional results) of the same molecule?
A: 10 to 40 nM

Q: And the IC90 (Rhizoctonia solani (Rs); [3])?
A: 2 µg/mL (≈ 3.25 µM)

Q: What about the IC90 (Rhizoctonia solani (Rs); [4]) of the same molecule?
A: 2 µg/mL (≈ 3.25 µM)

Q: What does the source list for `COc1ccc(F)cc1[C@H](Cn1c(=O)n(C(C)(C)C(=O)NC(C)C)c(=O)c2c(C)c(-n3nccn3)sc21)OCCC#N` [Compound I-91, (R)-2-(1-(2-(2-cyanoethoxy)-2-(5-fluoro-2-methoxy-phenyl)ethyl)-5-methyl-2,4-dioxo-6-(2H-1,2,3-triazol-2-yl)-1,4-dihydro-thieno[2,3-d]pyrimidin-3(2H)-yl)-N-isopropyl-2-methylpropanamide]?
A: IC50 (human (hACC2); Table 2a): 10 to 40 nM; IC50 (human (hACC2); Table 2b, additional results): 10 to 40 nM; IC90 (Rhizoctonia solani (Rs); [3]): 0.08 µg/mL (≈ 0.134 µM); IC90 (Rhizoctonia solani (Rs); [4]): 0.08 µg/mL (≈ 0.134 µM)
